Results from PubChem BioAssay AID248 (DTP/NCI, 2004).
Values joined by “and” are separate entries in the source; they are usually repeats but may differ in a detail not shown here. Equal entries are not always repeated. Toxic doses and inconclusive results are not listed. No stated cut-off is given here; in the data, active means T/C of 150% or more; inactive means T/C below 125%.

Test system: L1210 leukemia ip in BDF1 mice, survival T/C
Experiment: NCI In Vivo Anticancer Drug Screen. Data for tumor model L1210 Leukemia (intraperitoneal) in B6D2F1 (BDF1) mice
Conditions: endpoint: mean survival time, higher = longer survival
Method in brief: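 Tumor cells were implanted, animals were treated, and survival was followed. The result divides the treated measurement by the vehicle-control measurement.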

[1] = dose: 50.0 mg/kg/injection, schedule: Q01DX009 (ip), vehicle: saline with Tween-80
[2] = dose: 100.0 mg/kg/injection, schedule: Q04DX003 (ip), vehicle: saline with Tween-80
[3] = dose: 100.0 mg/kg/injection, schedule: Q01DX009 (ip), vehicle: saline with Tween-80
[4] = dose: 200.0 mg/kg/injection, schedule: Q01DX009 (ip), vehicle: saline with Tween-80
[5] = dose: 100.0 mg/kg/injection, schedule: Q04DX003 (ip), vehicle: Klucel (hydroxypropylcellulose) (HPC)
[6] = dose: 200.0 mg/kg/injection, schedule: Q04DX003 (ip), vehicle: Klucel (hydroxypropylcellulose) (HPC)
[7] = dose: 400.0 mg/kg/injection, schedule: Q01DX009 (ip), vehicle: saline with Tween-80
[8] = dose: 25.0 mg/kg/injection, schedule: Q01DX009 (ip), vehicle: saline
[9] = dose: 100.0 mg/kg/injection, schedule: Q04DX002 (ip), vehicle: saline with Tween-80
[10] = dose: 200.0 mg/kg/injection, schedule: Q04DX002 (ip), vehicle: saline with Tween-80
[11] = dose: 400.0 mg/kg/injection, schedule: Q04DX002 (ip), vehicle: saline with Tween-80
[12] = dose: 100.0 mg/kg/injection, schedule: Q01DX001 (ip), vehicle: saline with Tween-80
[13] = dose: 100.0 mg/kg/injection, schedule: Q01DX009 (ip), vehicle: Klucel (hydroxypropylcellulose) (HPC)
[14] = dose: 200.0 mg/kg/injection, schedule: Q01DX009 (ip), vehicle: Klucel (hydroxypropylcellulose) (HPC)
[15] = dose: 100.0 mg/kg/injection, schedule: Q01DX001 (ip), vehicle: saline
[16] = dose: 200.0 mg/kg/injection, schedule: Q01DX001 (ip), vehicle: saline

Measured: T/C

O=C(/C(=C\Cl)CBr)c1ccccc1
inactive: dose: 12.5 mg/kg/injection, schedule: Q01DX009 (ip), vehicle: saline with Tween-80 88 % of control | dose: 25.0 mg/kg/injection, schedule: Q01DX009 (ip), vehicle: saline with Tween-80 88 % of control | dose: 25.0 mg/kg/injection, schedule: Q04DX003 (ip), vehicle: saline with Tween-80 90 % of control | [1] 90 % of control | dose: 50.0 mg/kg/injection, schedule: Q04DX003 (ip), vehicle: saline with Tween-80 92 % of control | [2] 98 % of control

CCOC(=O)C(CC)C1=CCCCC1 (stereo not drawn)
inactive: [3] 97 % of control | [2] 91 % of control | [4] 103 % of control | dose: 200.0 mg/kg/injection, schedule: Q04DX003 (ip), vehicle: saline with Tween-80 99 % of control | dose: 400.0 mg/kg/injection, schedule: Q04DX003 (ip), vehicle: saline with Tween-80 91 % of control

CC1(C)CCCC/C1=N\NC(N)=O
inactive: dose: 37.5 mg/kg/injection, schedule: Q01DX009 (ip), vehicle: saline with Tween-80 98 % of control | dose: 75.0 mg/kg/injection, schedule: Q01DX001 (ip), vehicle: other 102 % of control | dose: 75.0 mg/kg/injection, schedule: Q01DX009 (ip), vehicle: saline with Tween-80 96 % of control | dose: 75.0 mg/kg/injection, schedule: Q04DX003 (ip), vehicle: saline sonified 98 % of control | dose: 150.0 mg/kg/injection, schedule: Q01DX001 (ip), vehicle: other 102 % of control | dose: 150.0 mg/kg/injection, schedule: Q01DX009 (ip), vehicle: saline with Tween-80 94 % of control | dose: 150.0 mg/kg/injection, schedule: Q04DX003 (ip), vehicle: saline sonified 87 % of control | dose: 300.0 mg/kg/injection, schedule: Q01DX001 (ip), vehicle: other 102 % of control

O=C(O)/C(=C\C#Cc1ccccc1)c1ccccc1
inactive: [5] 94 % of control | [6] 100 % of control

CCCCCC(C)(O)CC(C)(C)C (stereo not drawn)
inactive: dose: 100.0 mg/kg/injection, schedule: Q01DX001 (ip), vehicle: carboxymethylcellulose (CMC) 92 % of control | dose: 200.0 mg/kg/injection, schedule: Q01DX001 (ip), vehicle: carboxymethylcellulose (CMC) 97 % of control | dose: 400.0 mg/kg/injection, schedule: Q01DX001 (ip), vehicle: carboxymethylcellulose (CMC) 97 % of control

N#Cc1c(NN)n(C2OC(CO)C(O)C2O)c2ncncc12 (stereo not drawn)
inactive: dose: 100.0 mg/kg/injection, schedule: Q01DX005 (ip), vehicle: saline 106 % of control | dose: 200.0 mg/kg/injection, schedule: Q01DX005 (ip), vehicle: saline 106 % of control

Cc1ccc(S(=O)(=O)N/N=C/c2ccc(Cl)s2)cc1
inactive: [3] 95 % of control | [4] 97 % of control | [7] 92 % of control

CCOC(=O)N1c2ccccc2C=CC1OCC (stereo not drawn)
inactive: dose: 12.0 mg/kg/injection, schedule: Q01DX009 (ip), vehicle: saline 93 % of control | dose: 12.0 mg/kg/injection, schedule: Q04DX003 (ip), vehicle: saline 119 % of control | [8] 89 % of control | dose: 25.0 mg/kg/injection, schedule: Q04DX003 (ip), vehicle: saline 113 % of control | dose: 50.0 mg/kg/injection, schedule: Q01DX009 (ip), vehicle: saline 89 % of control | dose: 50.0 mg/kg/injection, schedule: Q04DX003 (ip), vehicle: saline 94 % of control

O=C(NC1C=CCCC1)c1ccccc1 (stereo not drawn)
inactive: [1] 102 % of control | [3] 96 % of control | [4] 96 % of control

CCCC(=O)Nc1cc([N+](=O)[O-])ccc1O
inactive: [1] 97 % of control and 106 % of control | [9] 93 % of control and 95 % of control | [10] 95 % of control and 97 % of control | [11] 95 % of control and 92 % of control

C=C(C)CNC(N)=S
inactive: dose: 75.0 mg/kg/injection, schedule: Q04DX003 (ip), vehicle: Klucel (hydroxypropylcellulose) (HPC) 98 % of control | dose: 100.0 mg/kg/injection, schedule: Q01DX001 (ip), vehicle: Klucel (hydroxypropylcellulose) (HPC) 105 % of control | dose: 150.0 mg/kg/injection, schedule: Q04DX003 (ip), vehicle: Klucel (hydroxypropylcellulose) (HPC) 89 % of control | dose: 200.0 mg/kg/injection, schedule: Q01DX001 (ip), vehicle: Klucel (hydroxypropylcellulose) (HPC) 98 % of control | dose: 300.0 mg/kg/injection, schedule: Q04DX003 (ip), vehicle: Klucel (hydroxypropylcellulose) (HPC) 110 % of control | dose: 400.0 mg/kg/injection, schedule: Q01DX001 (ip), vehicle: Klucel (hydroxypropylcellulose) (HPC) 105 % of control

CC(C)=CCC/C(C)=C\COc1cccc(C)c1
inactive: [9] 100 % of control | [10] 96 % of control | [11] 96 % of control

COC(=O)c1nc(N)n[nH]1
inactive: dose: 100.0 mg/kg/injection, schedule: Q01DX001 (ip), vehicle: other 110 % of control | [3] 106 % of control | dose: 100.0 mg/kg/injection, schedule: Q04DX003 (ip), vehicle: other 102 % of control | dose: 200.0 mg/kg/injection, schedule: Q01DX001 (ip), vehicle: other 95 % of control | [4] 94 % of control | dose: 200.0 mg/kg/injection, schedule: Q04DX003 (ip), vehicle: other 105 % of control | dose: 400.0 mg/kg/injection, schedule: Q01DX001 (ip), vehicle: other 97 % of control | [7] 95 % of control | dose: 400.0 mg/kg/injection, schedule: Q04DX003 (ip), vehicle: other 102 % of control

Cc1ccc(S(=O)(=O)OCC(c2ccccc2)C(F)(F)F)cc1 (stereo not drawn)
inactive: [12] 94 % of control | dose: 200.0 mg/kg/injection, schedule: Q01DX001 (ip), vehicle: saline with Tween-80 100 % of control | dose: 400.0 mg/kg/injection, schedule: Q01DX001 (ip), vehicle: saline with Tween-80 101 % of control

Cc1ccc(CCO)c(C)c1
inactive: [13] 92 % of control | [5] 92 % of control | [14] 94 % of control | [6] 92 % of control | dose: 400.0 mg/kg/injection, schedule: Q01DX009 (ip), vehicle: Klucel (hydroxypropylcellulose) (HPC) 90 % of control | dose: 400.0 mg/kg/injection, schedule: Q04DX003 (ip), vehicle: Klucel (hydroxypropylcellulose) (HPC) 103 % of control

CCOC(=O)CCC(NC(=O)c1ccc(NCc2nnc3nc(N)n4nnnc4c3n2)cc1)C(=O)OCC (stereo not drawn)
inactive: dose: 25.0 mg/kg/injection, schedule: Q01DX001 (ip), vehicle: saline with Tween-80 96 % of control | dose: 50.0 mg/kg/injection, schedule: Q01DX001 (ip), vehicle: saline with Tween-80 109 % of control | [12] 100 % of control

CC1(C)C=CC(=NO)C=C1
inactive: [13] 96 % of control | [14] 97 % of control

O=C(O)C(Br)CBr (stereo not drawn)
inactive: [15] 90 % of control

c1ccc(-n2ncn[n+]2-c2ccccc2)cc1
inactive: dose: 10.0 mg/kg/injection, schedule: Q01DX001 (ip), vehicle: saline 98 % of control | dose: 20.0 mg/kg/injection, schedule: Q01DX001 (ip), vehicle: saline 90 % of control | dose: 40.0 mg/kg/injection, schedule: Q01DX001 (ip), vehicle: saline 95 % of control | dose: 80.0 mg/kg/injection, schedule: Q01DX001 (ip), vehicle: saline 109 % of control

C=C(Br)CNC(=O)Nc1ccccn1
inactive: [13] 93 % of control | [14] 96 % of control

S=C=NCc1cccc(CN=C=S)c1
inactive: dose: 6.25 mg/kg/injection, schedule: Q01DX009 (ip), vehicle: saline with Tween-80 103 % of control

Cc1cc(=O)[nH]c(N2CCOCC2)n1
inactive: [15] 106 % of control | [16] 101 % of control

COc1cc(CCC(=O)O)cc(/C=N/NC(N)=O)c1O
inactive: [15] 101 % of control | [16] 89 % of control | dose: 400.0 mg/kg/injection, schedule: Q01DX001 (ip), vehicle: saline 95 % of control

N#Cc1cn(C2OC(CO)C(O)C2O)c2nc(Cl)nc(N)c12 (stereo not drawn)
inactive: dose: 7.5 mg/kg/injection, schedule: Q01DX005 (ip), vehicle: saline 114 % of control | dose: 12.5 mg/kg/injection, schedule: Q01DX005 (ip), vehicle: saline 119 % of control | dose: 12.5 mg/kg/injection, schedule: Q01DX009 (ip), vehicle: saline 117 % of control | dose: 21.0 mg/kg/injection, schedule: Q01DX005 (ip), vehicle: saline 108 % of control | dose: 25.0 mg/kg/injection, schedule: Q01DX005 (ip), vehicle: saline 118 % of control | [8] 98 % of control
